The record followed here is PubChem BioAssay (NCI).

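Assay format: 96-well plates, 48-hour exposure. At the GI50, growth is halved. TGI denotes the concentration required for complete inhibition of growth.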

Among the test systems are A498 renal; ACHN renal; CCRF-CEM leukemia; COLO 205 colon; LOX IMVI melanoma; MDA-N; NCI/ADR-RES ovarian; TK-10 renal; DMS 114 small cell lung; HOP-18 NSCLC; M19-MEL melanoma; SNB-78 CNS; XF 498 CNS.
What all share (experiment): NCI-60 cell line screen, 48 h

As for `O=C/C=C/c1ccco1`, the TGI in the experiment on A498 renal, in the experiment with ACHN renal, with CCRF-CEM leukemia, in the experiment with COLO 205 colon, in the experiment on LOX IMVI melanoma and in the experiment with MDA-N was > 100 µM in each case. Also, the TGI with NCI/ADR-RES ovarian and with TK-10 renal was > 100 µM in each case.

As for `COc1cc(C2C(C(=O)O)=C(COC(C)=O)Oc3cc4c(cc32)OCO4)cc(OC)c1OC` (stereo not drawn), the TGI in the experiment with ACHN renal, with CCRF-CEM leukemia, with COLO 205 colon, in the experiment with DMS 114 small cell lung, in the experiment on HOP-18 NSCLC and in the experiment on LOX IMVI melanoma was > 100 µM in each case. Further, the TGI in the experiment on M19-MEL melanoma, in the experiment with SNB-78 CNS, with TK-10 renal and in the experiment with XF 498 CNS was > 100 µM each time.

In the case of `O=C1/C(=C/c2ccc(Cl)cc2)N=C(c2ccccc2)N1CCc1cccs1`, the GI50 is 16.7 µM in the experiment on A498 renal; 28.8 µM in the experiment on ACHN renal; 22.7 µM with CCRF-CEM leukemia; 16 µM with COLO 205 colon; 8.52 µM in the experiment with LOX IMVI melanoma; 23.7 µM with NCI/ADR-RES ovarian. In the experiment with TK-10 renal, the GI50 was 27.9 µM. Also, the TGI is > 100 µM in the experiment with A498 renal; > 100 µM in the experiment on ACHN renal; > 100 µM in the experiment with CCRF-CEM leukemia; 39.9 µM with COLO 205 colon; > 100 µM in the experiment with LOX IMVI melanoma; > 100 µM in the experiment on NCI/ADR-RES ovarian. In the experiment with TK-10 renal, the TGI is > 100 µM.

Turning to `N=C(N)SCc1ccc(Cl)cc1Cl` (tested in a mixture with another compound), the TGI came out at 27.5 µM in the experiment with A498 renal; 23.1 µM in the experiment on ACHN renal; 15.5 µM in the experiment with CCRF-CEM leukemia; 39.6 µM in the experiment with COLO 205 colon; 38.8 µM in the experiment on LOX IMVI melanoma; 21.6 µM with MDA-N. The TGI with NCI/ADR-RES ovarian stood at 73.9 µM; with TK-10 renal, 18.8 µM.

As for `CNC(=O)N(C)COC`, the TGI with A498 renal, in the experiment with ACHN renal, with CCRF-CEM leukemia, in the experiment on COLO 205 colon, with DMS 114 small cell lung and in the experiment with HOP-18 NSCLC was > 100 µM throughout. The TGI with LOX IMVI melanoma, in the experiment on M19-MEL melanoma, in the experiment with SNB-78 CNS and in the experiment on XF 498 CNS was > 100 µM in each case.

On to `O=C(O)c1cn2c3c(cc(N4CCN(CCO)CC4)cc3c1=O)SCC2`, for which the TGI with A498 renal, in the experiment on CCRF-CEM leukemia, in the experiment with COLO 205 colon, in the experiment with DMS 114 small cell lung, in the experiment on HOP-18 NSCLC and in the experiment with LOX IMVI melanoma was > 100 µM in each case. For the same compound, the TGI is > 100 µM with M19-MEL melanoma, > 100 µM in the experiment with NCI/ADR-RES ovarian, > 100 µM in the experiment with SNB-78 CNS and 67.2 µM in the experiment with XF 498 CNS.

Regarding `COc1cc(/C=C/C(=O)c2c(C)nc3ccccc3c2C)ccc1OCCCOc1cc2c(cc1OC)C(=O)N1CCC[C@H]1C=N2`, the GI50 in the experiment on A498 renal was 0.0194 µM; in the experiment with ACHN renal, 0.0313 µM; with COLO 205 colon it was 0.0211 µM; with LOX IMVI melanoma it was 0.0193 µM; in the experiment on NCI/ADR-RES ovarian, 0.393 µM; in the experiment with TK-10 renal, 0.0257 µM. In addition, the TGI in the experiment with A498 renal was found to be 0.0419 µM; in the experiment on ACHN renal it was 0.106 µM; in the experiment with CCRF-CEM leukemia, 0.0215 µM; with COLO 205 colon it was 0.0453 µM; in the experiment with LOX IMVI melanoma, 0.0602 µM; with NCI/ADR-RES ovarian it was 5.92 µM. Besides, the TGI with TK-10 renal amounted to 0.0682 µM.

Take `CN(C)c1ccc(C(Cc2ccc3ccccc3n2)Cc2ccc3ccccc3n2)cc1`: in the experiment on TK-10 renal, the GI50 is 4.93 µM and the TGI is > 100 µM.

Take `CCCCCCCCCCCCCC[n+]1ccc2c(C)c3c(c(C)c2c1)c1cc(O)ccc1n3CC`: the GI50 was 0.327 µM with A498 renal, 1.22 µM in the experiment on ACHN renal, 5.13 µM in the experiment with NCI/ADR-RES ovarian and 0.337 µM in the experiment with TK-10 renal. Besides, the TGI came out at 1.27 µM in the experiment with A498 renal, 3.9 µM in the experiment on ACHN renal, 32.3 µM with NCI/ADR-RES ovarian and 1.54 µM in the experiment with TK-10 renal.

For `CO/N=C(\C)COc1ccc2c(=O)c(-c3ccccc3)coc2c1`, the GI50 with ACHN renal was 19.2 µM; in the experiment on CCRF-CEM leukemia it was > 100 µM; in the experiment with COLO 205 colon, 11.2 µM; in the experiment on LOX IMVI melanoma, 42.5 µM; with NCI/ADR-RES ovarian it was 14.5 µM; with TK-10 renal, 20 µM. Further, the TGI in the experiment on ACHN renal is 38.8 µM; in the experiment on CCRF-CEM leukemia it was > 100 µM; in the experiment with COLO 205 colon, 32.4 µM; with LOX IMVI melanoma, > 100 µM; in the experiment on NCI/ADR-RES ovarian it was 50 µM; with TK-10 renal it was 42.9 µM.

In the case of `CC(C)C1=CCC2C(=C1)CCC1C(C)(C(=O)O)CCCC21C` (stereo not drawn) (tested in a mixture with another compound), the TGI in the experiment with A498 renal, in the experiment with ACHN renal, with CCRF-CEM leukemia, with COLO 205 colon, with LOX IMVI melanoma and in the experiment on MDA-N was > 100 µM in each case. Also, the TGI in the experiment with NCI/ADR-RES ovarian and with TK-10 renal was > 100 µM in each case.

In the case of `CCc1ccc2nc(-c3ccc(O)cc3)sc2c1`, the TGI in the experiment on A498 renal was found to be 34.2 µM; in the experiment on ACHN renal it was 38.2 µM; in the experiment on COLO 205 colon, 28.6 µM; in the experiment on LOX IMVI melanoma, 33.6 µM; in the experiment with MDA-N, 36 µM; in the experiment on NCI/ADR-RES ovarian, 32.9 µM. The same compound came in with a TGI in the experiment on TK-10 renal of 35.7 µM.

Regarding `N#Cc1c(N)sc2c1-c1ccccc1OC2`, the TGI was > 100 µM in the experiment with A498 renal; > 100 µM in the experiment on ACHN renal; 36 µM in the experiment on CCRF-CEM leukemia; > 100 µM in the experiment with COLO 205 colon; > 100 µM in the experiment with LOX IMVI melanoma; 67.1 µM in the experiment with MDA-N. Further, the TGI in the experiment with NCI/ADR-RES ovarian and in the experiment with TK-10 renal was > 100 µM throughout.
